Our source for the IC50 values is patent US20120083476A1, “HETEROARYL-SUBSTITUTED SPIROCYCLIC DIAMINE UREA MODULATORS OF FATTY ACID AMIDE HYDROLASE” (Janssen Pharmaceutica NV, priority 2009, published 2012).

pIC50: −log10 of the molar value. Structures can show the parent of a compound that is named as a salt. Where two headings read alike, the source gives them in different places.

One experiment addresses T1, Rat FAAH (Rattus norvegicus, UniProt P97612).
T1 construct: expressed in transfected cells; host or cells: SK-N-MC cells stably transfected with rat FAAH cDNA (G418 selection)
T1 sequence (P97612 1-579): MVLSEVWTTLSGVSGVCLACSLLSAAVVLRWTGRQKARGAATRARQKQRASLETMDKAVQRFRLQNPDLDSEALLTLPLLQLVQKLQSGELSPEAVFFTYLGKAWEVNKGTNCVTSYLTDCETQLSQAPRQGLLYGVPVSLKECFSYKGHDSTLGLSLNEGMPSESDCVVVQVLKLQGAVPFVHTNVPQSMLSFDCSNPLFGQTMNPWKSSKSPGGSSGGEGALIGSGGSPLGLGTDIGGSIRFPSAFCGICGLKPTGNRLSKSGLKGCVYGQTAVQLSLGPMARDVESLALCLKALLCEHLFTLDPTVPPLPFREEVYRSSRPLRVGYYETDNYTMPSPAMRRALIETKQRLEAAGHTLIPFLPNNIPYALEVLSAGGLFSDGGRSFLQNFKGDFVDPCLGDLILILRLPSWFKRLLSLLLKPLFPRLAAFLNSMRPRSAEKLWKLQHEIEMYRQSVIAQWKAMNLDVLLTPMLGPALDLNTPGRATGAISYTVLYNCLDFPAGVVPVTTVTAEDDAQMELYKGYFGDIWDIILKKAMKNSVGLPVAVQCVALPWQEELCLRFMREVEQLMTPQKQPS
As to the kind of experiment: Assay Method 2: rat FAAH assay (3H-anandamide hydrolysis in cell homogenate). Type of experiment: biochemical. The method in brief: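 Homogenates of T84 cells or SK-N-MC cells stably transfected with rat FAAH, in pH 9 Tris/EDTA/glycerol/Triton buffer, incubated 1 h at room temperature with 3H-anandamide. Released labeled ethanolamine separated from substrate on activated charcoal and counted by scintillation; values averaged over runs.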

The next experiment addresses T2, FAAH (Homo sapiens, UniProt O00519).
T2 sequence (O00519 1-579): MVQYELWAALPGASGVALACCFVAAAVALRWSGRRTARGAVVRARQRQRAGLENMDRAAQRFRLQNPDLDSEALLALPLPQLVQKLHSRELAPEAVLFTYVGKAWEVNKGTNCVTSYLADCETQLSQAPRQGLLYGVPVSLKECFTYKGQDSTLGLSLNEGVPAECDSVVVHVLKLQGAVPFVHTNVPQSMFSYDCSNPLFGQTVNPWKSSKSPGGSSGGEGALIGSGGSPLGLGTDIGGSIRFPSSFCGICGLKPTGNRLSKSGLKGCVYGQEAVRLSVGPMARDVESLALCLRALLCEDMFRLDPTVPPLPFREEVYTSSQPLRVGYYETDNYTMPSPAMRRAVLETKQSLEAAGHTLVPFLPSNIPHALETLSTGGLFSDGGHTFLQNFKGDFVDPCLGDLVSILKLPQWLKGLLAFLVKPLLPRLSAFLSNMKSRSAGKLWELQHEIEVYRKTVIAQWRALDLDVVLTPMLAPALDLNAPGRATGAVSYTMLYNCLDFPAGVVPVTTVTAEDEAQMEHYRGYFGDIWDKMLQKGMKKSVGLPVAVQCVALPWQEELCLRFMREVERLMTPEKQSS
The experiment is described as follows: Assay Method 1: human FAAH assay (3H-anandamide hydrolysis in cell homogenate). In kind it is biochemical. Further details: expressed in transfected cells; host or cells: SK-N-MC cells stably transfected with human FAAH cDNA (G418 selection); alternatively T84 cell pellets. The method in brief: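 Homogenates of T84 cells or SK-N-MC cells stably transfected with human FAAH, in pH 9 Tris/EDTA buffer with 0.02% Triton X-100. Incubated 1 h at rt with compound and 80 nM (final) [3H-ethanolamine]-anandamide. Released 3H-ethanolamine separated on charcoal filters and counted by scintillation.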

Turning to `O=C(Nc1ccc(N2CCCCC2)nc1)N1CC2(CCN(Cc3cccc(Oc4ccc(Cl)cc4)c3)CC2)C1` [Example 81, 7-(3-(4-chlorophenoxy)benzyl)-N-(6-(piperidin-1-yl)pyridin-3-yl)-2,7-diazaspiro[3.5]nonane-2-carboxamide, trifluoroacetic acid salt], the pIC50 at Rat FAAH (read-out: Assay 2 IC50) is 5.52; at FAAH (read-out: Assay 1 IC50), 5.80.
In the case of `O=C(Nc1cncc(Br)c1)N1CC2(CCN(Cc3cccc(Oc4ccc(Cl)cc4)c3)CC2)C1` [Example 82, N-(5-bromopyridin-3-yl)-7-(3-(4-chlorophenoxy)benzyl)-2,7-diazaspiro[3.5]nonane-2-carboxamide, trifluoroacetic acid salt], the values for the negative-log IC50 (pIC50) on Rat FAAH (read-out: Assay 2 IC50) and on FAAH (read-out: Assay 1 IC50) were 7.70 and 6.55, respectively.
On the same counts, the results for `N#Cc1ccncc1NC(=O)N1CC2(CCN(Cc3cccc(Oc4ccc(Cl)cc4)c3)CC2)C1` [Example 84, 7-(3-(4-chlorophenoxy)benzyl)-N-(4-cyanopyridin-3-yl)-2,7-diazaspiro[3.5]nonane-2-carboxamide] are 8.00 and 6.96.
`Cc1ccncc1NC(=O)N1CC2(CCN(Cc3cccc(Oc4ccc(Cl)cc4)c3)CC2)C1` [Example 85, 7-(3-(4-chlorophenoxy)benzyl)-N-(4-methylpyridin-3-yl)-2,7-diazaspiro[3.5]nonane-2-carboxamide]: the pIC50 on Rat FAAH (read-out: Assay 2 IC50) was 7.40; against FAAH, 7.10.
Turning to `O=C(Nc1cnccc1C(F)(F)F)N1CC2(CCN(Cc3cccc(Oc4ccc(Cl)cc4)c3)CC2)C1` [Example 86, 7-(3-(4-chlorophenoxy)benzyl)-N-(4-(trifluoromethyl)pyridin-3-yl)-2,7-diazaspiro[3.5]nonane-2-carboxamide], the pIC50 on Rat FAAH (read-out: Assay 2 IC50) is 7.40; on FAAH (read-out: Assay 1 IC50) it was 6.38.
On the same counts, the results for `O=C(Nc1ccc(-n2nccn2)nc1)N1CC2(CCN(Cc3ccc4c(c3)OC(F)(F)O4)CC2)C1` [Example 88, 7-(2,2-Difluoro-benzo[1,3]dioxol-5-ylmethyl)-2,7-diaza-spiro[3.5]nonane-2-carboxylic acid (6-[1,2,3]triazol-2-yl-pyridin-3-yl)-amide] are less than 5.00 and 5.40.
Turning to `O=C(Nc1cccnc1)N1CCC2(CCN(Cc3cccc(Oc4ccc(Cl)cc4)c3)CC2)C1` [Example 90, 8-[3-(4-Chloro-phenoxy)-benzyl]-2,8-diaza-spiro[4.5]decane-2-carboxylic acid pyridin-3-ylamide, trifluoroacetic acid salt], the pIC50 at Rat FAAH was 6.37; against FAAH, 5.70.
As to `O=C(Nc1ccc(-n2nccn2)nc1)N1CCC2(CCN(Cc3cccc(Oc4ccc(Cl)cc4)c3)CC2)C1` [Example 91, 8-[3-(4-Chloro-phenoxy)-benzyl]-2,8-diaza-spiro[4.5]decane-2-carboxylic acid (6-[1,2,3]triazol-2-yl-pyridin-3-yl)-amide, trifluoroacetic acid salt], the figures for the pIC50 at Rat FAAH (read-out: Assay 2 IC50) and on FAAH (read-out: Assay 1 IC50) were 6.59 and 6.70, respectively.
With `O=C(Nc1noc2ccccc12)N1CCC2(CCN(Cc3cccc(Oc4ccc(Cl)cc4)c3)CC2)C1` [Example 92, 8-[3-(4-Chloro-phenoxy)-benzyl]-2,8-diaza-spiro[4.5]decane-2-carboxylic acid benzo[d]isoxazol-3-ylamide, trifluoroacetic acid salt], the pIC50 at Rat FAAH (read-out: Assay 2 IC50) was 7.70; on FAAH (read-out: Assay 1 IC50), 6.80.
For `O=C(Nc1cccnc1)N1CCC2(CCCN2Cc2cccc(Oc3ccc(Cl)cc3)c2)CC1` [Example 93, 1-[3-(4-Chloro-phenoxy)-benzyl]-1,8-diaza-spiro[4.5]decane-8-carboxylic acid pyridin-3-ylamide], in that order: 6.32 and 5.96.
On the same counts, the results for `O=C(Nc1ccc(-n2nccn2)nc1)N1CCC2(CCCN2Cc2cccc(Oc3ccc(Cl)cc3)c2)CC1` [Example 94, 1-[3-(4-Chloro-phenoxy)-benzyl]-1,8-diaza-spiro[4.5]decane-8-carboxylic acid (6-[1,2,3]triazol-2-yl-pyridin-3-yl)-amide] are 6.24 and 6.43.
For `O=C(Nc1cnc2[nH]ccc2c1)N1CCC2(CCCN2Cc2cccc(Oc3ccc(Cl)cc3)c2)CC1` [Example 95, 1-[3-(4-Chloro-phenoxy)-benzyl]-1,8-diaza-spiro[4.5]decane-8-carboxylic acid (1H-pyrrolo[2,3-b]pyridin-5-yl)-amide], in that order: 6.40 and 6.11.
In the case of `O=C(Nc1cccnc1)N1CC2(CCCN(Cc3cccc(Oc4ccc(Cl)cc4)c3)C2)C1` [Example 96, 6-[3-(4-Chloro-phenoxy)-benzyl]-2,6-diaza-spiro[3.5]nonane-2-carboxylic acid pyridin-3-ylamide], the pIC50 at Rat FAAH (read-out: Assay 2 IC50) is 5.22; at FAAH it was 5.10.
Turning to `O=C(Nc1cccnc1)N1CC2(CCN(Cc3ccccc3)CC2)C1` [Example 97, 7-Benzyl-2,7-diaza-spiro[3.5]nonane-2-carboxylic acid pyridin-3-ylamide], the pIC50 at Rat FAAH (read-out: Assay 2 IC50) and at FAAH (read-out: Assay 1 IC50) was less than 5.00 in each case.
Turning to `O=C(Nc1cccnc1)N1CC2(CCN(Cc3ccc(Cl)cc3)CC2)C1` [Example 100, 7-(4-Chloro-benzyl)-2,7-diaza-spiro[3.5]nonane-2-carboxylic acid pyridin-3-ylamide], the pIC50 is less than 5.00 at Rat FAAH (read-out: Assay 2 IC50) and 5.10 at FAAH (read-out: Assay 1 IC50).
On to `O=C(Nc1cccnc1)N1CC2(CCN(Cc3ccc(Cl)c(Cl)c3)CC2)C1` [Example 101, 7-(3,4-dichlorobenzyl)-N-(pyridin-3-yl)-2,7-diazaspiro[3.5]nonane-2-carboxamide], for which the figures for the pIC50 on Rat FAAH (read-out: Assay 2 IC50) and on FAAH (read-out: Assay 1 IC50) were less than 5.00 and 5.22, respectively.
On the same counts, the results for `O=C(Nc1cccnc1)N1CC2(CCN(Cc3ccc(OC(F)(F)F)cc3)CC2)C1` [Example 103, N-(pyridin-3-yl)-7-(4-(trifluoromethoxy)benzyl)-2,7-diazaspiro[3.5]nonane-2-carboxamide] are less than 5.00 and 5.89.
On the same counts, the results for `O=C(Nc1cccnc1)N1CC2(CCN(Cc3ccc4ccccc4c3)CC2)C1` [Example 104, 7-(naphthalen-2-ylmethyl)-N-(pyridin-3-yl)-2,7-diazaspiro[3.5]nonane-2-carboxamide] are less than 5.00 and 5.60.
For `O=C(Nc1cccnc1)N1CC2(CCN(Cc3cccc(C#Cc4ccccc4)c3)CC2)C1` [Example 105, 7-(3-(phenylethynyl)benzyl)-N-(pyridin-3-yl)-2,7-diazaspiro[3.5]nonane-2-carboxamide], in that order: 5.10 and 6.43.
For `CS(=O)(=O)c1ccc(CN2CCC3(CC2)CN(C(=O)Nc2cccnc2)C3)cc1` [Example 106, 7-(4-(methylsulfonyl)benzyl)-N-(pyridin-3-yl)-2,7-diazaspiro[3.5]nonane-2-carboxamide], the pIC50 on Rat FAAH (read-out: Assay 2 IC50) and at FAAH (read-out: Assay 1 IC50) was less than 5.00 in each case.
For the compound `O=C(Nc1cccnc1)N1CC2(CCN(Cc3ccccc3O)CC2)C1` [Example 107, 7-(2-hydroxybenzyl)-N-(pyridin-3-yl)-2,7-diazaspiro[3.5]nonane-2-carboxamide], the pIC50 at Rat FAAH (read-out: Assay 2 IC50) and at FAAH (read-out: Assay 1 IC50) was less than 5.00 in each case.
Consider `O=C(Nc1cccnc1)N1CC2(CCN(Cc3ccc4ccccc4c3O)CC2)C1` [Example 108, 7-((1-hydroxynaphthalen-2-yl)methyl)-N-(pyridin-3-yl)-2,7-diazaspiro[3.5]nonane-2-carboxamide], for which the figures for the pIC50 at Rat FAAH (read-out: Assay 2 IC50) and on FAAH (read-out: Assay 1 IC50) were less than 5.00 and 5.10, respectively.
For `O=C(Nc1cccnc1)N1CC2(CCN(Cc3ccc(Cl)c(OC(F)(F)F)c3)CC2)C1` [Example 110, 7-(4-chloro-3-(trifluoromethoxy)benzyl)-N-(pyridin-3-yl)-2,7-diazaspiro[3.5]nonane-2-carboxamide], in that order: 5.22 and 5.89.
